What was measured:
[1] = test system: Rattus norvegicus; assay: Sub-acute toxicity in Wistar rat assessed as blood urea level at 100 mg/kg, po administered daily for 14 days (reference value: 40.7 +/- 3.3 mg/dl); assay type: organism-based; conditions: in vivo, 336 h
[2] = test system: Rattus norvegicus; assay: Sub-acute toxicity in Wistar rat assessed as monocytes level at 100 mg/kg, po administered daily for 14 days (reference value: 2.6 +/- 1.5%); assay type: organism-based; conditions: in vivo, 336 h
[3] = test system: Rattus norvegicus; assay: Sub-acute toxicity in Wistar rat assessed as RBC level at 100 mg/kg, po administered daily for 14 days (reference value: 7.9 +/- 0.56 million/mm3); assay type: organism-based; conditions: in vivo, 336 h
[4] = test system: Rattus norvegicus; assay: Sub-acute toxicity in Wistar rat assessed as Cl- level at 100 mg/kg, po administered daily for 14 days (reference value: 104.1 +/- 6.2 mEq/L); assay type: organism-based; conditions: in vivo, 336 h
[5] = test system: Mus musculus; assay: Anticonvulsant activity in Swiss albino mouse assessed as protection against subcutaneous PTZ-induced seizures at 30 mg/kg, ip administered 0.5 hrs prior to PTZ-induction relative to control; assay type: functional
[6] = test system: Mus musculus; assay: Anticonvulsant activity in Swiss albino mouse assessed as protection against subcutaneous PTZ-induced seizures at 100 mg/kg, ip administered 0.5 hrs prior to PTZ-induction relative to control; assay type: functional
[7] = test system: Mus musculus; assay: Anticonvulsant activity in Swiss albino mouse assessed as protection against maximal electroshock-induced seizures at 30 mg/kg, ip administered 2 hrs prior to 50 mA current induction relative to control; assay type: functional
[8] = test system: Rattus norvegicus; assay: Sub-acute toxicity in Wistar rat assessed as basophils level at 100 mg/kg, po administered daily for 14 days (reference value: 0.16 +/- 0.4%); assay type: organism-based; conditions: in vivo, 336 h
[9] = test system: Rattus norvegicus; assay: Sub-acute toxicity in Wistar rat assessed as total bilirubin level at 100 mg/kg, po administered daily for 14 days (reference value: 0.37 +/- 0.11 mg/dl); assay type: organism-based; conditions: in vivo, 336 h
[10] = test system: Mus musculus; assay: Anticonvulsant activity in Swiss albino mouse assessed as protection against maximal electroshock-induced seizures at 100 mg/kg, ip administered 0.5 hrs prior to 50 mA current induction relative to control
[11] = species: Homo sapiens; assay: Selectivity ratio of Ki for human recombinant carbonic anhydrase 9 to Ki for human recombinant carbonic anhydrase 7
[12] = test system: Rattus norvegicus; assay: Anticonvulsant activity in Wistar rat assessed as protection against maximal electroshock-induced seizures at 30 mg/kg, po administered 0.5 hrs prior to 150 mA current induction relative to control; assay type: functional
[13] = species: Homo sapiens; assay: Selectivity ratio of Ki for human recombinant carbonic anhydrase 2 to Ki for human recombinant carbonic anhydrase 7
[14] = test system: Rattus norvegicus; assay: Anticonvulsant activity in Wistar rat assessed as protection against maximal electroshock-induced seizures at 30 mg/kg, po administered 0.25 hrs prior to 150 mA current induction relative to control; assay type: functional
[15] = test system: Rattus norvegicus; assay: Sub-acute toxicity in Wistar rat assessed as mortality at 100 mg/kg, po administered daily for 14 days; assay type: organism-based; conditions: in vivo, 336 h
[16] = test system: Mus musculus; assay: Anticonvulsant activity in Swiss albino mouse assessed as protection against subcutaneous PTZ-induced seizures at 100 mg/kg, ip administered 3 hrs prior to PTZ-induction relative to control; assay type: functional
[17] = species: Homo sapiens; assay: Selectivity ratio of Ki for human recombinant carbonic anhydrase 1 to Ki for human recombinant carbonic anhydrase 7
[18] = test system: Mus musculus; assay: Anticonvulsant activity in Swiss albino mouse assessed as protection against maximal electroshock-induced seizures at 100 mg/kg, ip administered 0.5 hrs prior to 50 mA current induction relative to control; assay type: functional
[19] = target: Carbonic anhydrase 9 (Homo sapiens, UniProt Q16790); assay: Inhibition of human recombinant carbonic anhydrase 9 assessed as CO2 hydration preincubated for 15 mins prior to testing measured for 10 to 100 secs by phenol red dye-based stopped-flow assay
[20] = test system: Rattus norvegicus; assay: Sub-acute toxicity in Wistar rat assessed as platelet level at 100 mg/kg, po administered daily for 14 days (reference value: 760.8 +/- 179.9 10^3/mm3); assay type: organism-based; conditions: in vivo, 336 h
[21] = test system: Mus musculus; assay: Anticonvulsant activity in Swiss albino mouse assessed as protection against maximal electroshock-induced seizures at 30 mg/kg, ip administered 4 hrs prior to 50 mA current induction relative to control; assay type: functional
[22] = test system: Mus musculus; assay: Neurotoxicity in Swiss albino mouse at 30 mg/kg, ip after 30 to 120 mins by rotarod test; assay type: toxicity, organism-based; conditions: in vivo
[23] = test system: Rattus norvegicus; assay: Sub-acute toxicity in Wistar rat assessed as effect on water intake at 100 mg/kg, po administered daily for 14 days; assay type: organism-based; conditions: in vivo, 336 h
[24] = target: Carbonic anhydrase 2 (Homo sapiens, UniProt P00918); assay: Inhibition of human recombinant carbonic anhydrase 2 assessed as CO2 hydration preincubated for 15 mins prior to testing measured for 10 to 100 secs by phenol red dye-based stopped-flow assay
[25] = test system: Rattus norvegicus; assay: Sub-acute toxicity in Wistar rat assessed as effect on food intake at 100 mg/kg, po administered daily for 14 days; assay type: organism-based; conditions: in vivo, 336 h
[26] = test system: Mus musculus; assay: Anticonvulsant activity in Swiss albino mouse assessed as protection against maximal electroshock-induced seizures at 30 mg/kg, ip administered 1 hr prior to 50 mA current induction relative to control; assay type: functional
[27] = test system: Mus musculus; assay: Anticonvulsant activity in Swiss albino mouse assessed as protection against maximal electroshock-induced seizures at 30 mg/kg, ip administered 3 hrs prior to 50 mA current induction relative to control; assay type: functional
[28] = test system: Mus musculus; assay: Anticonvulsant activity in Swiss albino mouse assessed as protection against subcutaneous PTZ-induced seizures at 30 mg/kg, ip administered 3 hrs prior to PTZ-induction relative to control; assay type: functional
[29] = test system: Rattus norvegicus; assay: Sub-acute toxicity in Wistar rat assessed as lymphocytes level at 100 mg/kg, po administered daily for 14 days (reference value: 72.3 +/- 6.7%); assay type: organism-based; conditions: in vivo, 336 h
[30] = test system: Rattus norvegicus; assay: Anticonvulsant activity in Wistar rat assessed as protection against maximal electroshock-induced seizures at 30 mg/kg, po administered 1 hr prior to 150 mA current induction relative to control; assay type: functional
[31] = test system: Rattus norvegicus; assay: Anticonvulsant activity in Wistar rat assessed as protection against maximal electroshock-induced seizures at 30 mg/kg, po administered 2 hrs prior to 150 mA current induction relative to control; assay type: functional
[32] = target: Carbonic anhydrase 7 (Homo sapiens, UniProt P43166); assay: Inhibition of human recombinant carbonic anhydrase 7 assessed as CO2 hydration preincubated for 15 mins prior to testing measured for 10 to 100 secs by phenol red dye-based stopped-flow assay
[33] = test system: Rattus norvegicus; assay: Sub-acute toxicity in Wistar rat assessed as SGPT level at 100 mg/kg, po administered daily for 14 days (reference value: 58.8 +/- 18.8 U/L); assay type: organism-based; conditions: in vivo, 336 h
[34] = test system: Mus musculus; assay: Anticonvulsant activity in Swiss albino mouse assessed as protection against maximal electroshock-induced seizures at 100 mg/kg, ip administered 3 hrs prior to 50 mA current induction relative to control
[35] = test system: Rattus norvegicus; assay: Anticonvulsant activity in Wistar rat assessed as protection against maximal electroshock-induced seizures at 30 mg/kg, po administered 4 hrs prior to 150 mA current induction relative to control; assay type: functional
[36] = test system: Rattus norvegicus; assay: Sub-acute toxicity in Wistar rat assessed as neutrophils level at 100 mg/kg, po administered daily for 14 days (reference value: 23.4 +/- 2.9%); assay type: organism-based; conditions: in vivo, 336 h

Sequence of Carbonic anhydrase 7 (P43166 whole entry): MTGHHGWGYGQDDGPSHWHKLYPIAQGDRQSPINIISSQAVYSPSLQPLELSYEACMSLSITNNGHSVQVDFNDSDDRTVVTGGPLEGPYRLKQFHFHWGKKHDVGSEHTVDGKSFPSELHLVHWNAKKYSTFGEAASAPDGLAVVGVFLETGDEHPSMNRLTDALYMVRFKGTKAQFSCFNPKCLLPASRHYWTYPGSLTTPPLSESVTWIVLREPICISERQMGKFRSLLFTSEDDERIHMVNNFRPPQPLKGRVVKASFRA

SMILES: Cc1ccc(N2CCN(c3ccc(/C=N/NC(=O)c4ccc(S(N)(=O)=O)cc4)cc3)CC2)c(C)c1
- Activity [1]: 39.6 mg/dL
- Activity [2]: 2%
- Activity [3]: 7.2 million/mm3
- Activity [4]: 105.6 mEq/L
- Activity [5]: 50%
- Activity [6]: 50%
- Activity [7]: 60%
- Activity [8]: 0.33%
- Activity [9]: 0.35 mg/dL
- Activity [10]: 50%
- Ratio Ki [11]: 93
- Activity [12]: 67 - 84%
- Ratio Ki [13]: 527
- Activity [14]: 17%
- Activity [15]: Non-Toxic
- Activity [16]: 83%
- Ratio Ki [17]: 561
- Activity [18]: 50%
- Ki [19]: 1660 nM
- Activity [20]: 622.3 ×10³ /mm3
- Activity [21]: 50%
- Activity [22]: Non-Toxic
- Activity [23]: Non-Toxic
- Ki [24]: 9390 nM
- Activity [25]: Non-Toxic
- Activity [26]: 60%
- Activity [27]: 70%
- Activity [28]: 67%
- Activity [29]: 71.5%
- Activity [30]: 84%
- Activity [31]: 67%
- Ki [32]: 17.8 nM
- Activity [33]: 60.3 U/L
- Activity [34]: 50%
- Activity [35]: 50%
- Activity [36]: 23.1%

Reference: ChEMBL document CHEMBL4270557, “Discovery of potent anti-convulsant carbonic anhydrase inhibitors: Design, synthesis, in vitro and in vivo appraisal” (Eur J Med Chem, 2018)
